The record followed here is ChEMBL document CHEMBL2331311, “Photoprotection of DNA (in vitro) by acyclothymidine dinucleosides” (Bioorg Med Chem Lett, 2013).

pEC50: −log10 of the molar value. Active and inactive are the calls of the source. The rule behind the calls is not given here.

Assay [1] can be described thus: Cytotoxicity against mouse Cloudman S91 cells assessed as cell viability after 72 hrs by MTT assay. It is filed as cell-based. Particulars: S91, 72 h.
The nature of assay [2]: Cytotoxicity against human fibroblasts assessed as cell viability after 72 hrs by MTT assay. The following applies: Fibroblast. In kind it is cell-based.
A short description of assay [3]: Photoprotection against UV light-induced Escherichia coli pEGFP-C1 DNA damage at 10 mM treated in cream formulation measured for 2 hrs by agarose gel electrophoresis. It is filed as functional.
Assay [4] concerns Vero. Briefly: Cytotoxicity against african green monkey Vero cells assessed as cell viability after 72 hrs by MTT assay. It is filed as cell-based. Particulars: Chlorocebus sabaeus.
The subject of assay [5] is RPMI-8226. Briefly: Photoprotection against UV light-induced DNA damage in human RPMI8226 cells at 10 mM treated in cream formulation measured for 3 hrs by agarose gel electrophoresis. It is filed as functional, cell-based.
Assay [6] is described as follows: Photoprotection against UV light-induced Escherichia coli pEGFP-C1 DNA damage at 10 mM treated in 1N NaOH solution measured for 2 hrs by agarose gel electrophoresis. It is filed as functional.
The test system of assay [7] is MCF-10A. Briefly: Cytotoxicity against human MCF10A cells assessed as cell viability after 72 hrs by MTT assay. In kind it is cell-based.

For the compound `Cc1cn(CCCn2cc(C)c(=O)[nH]c2=O)c(=O)[nH]c1=O`, the pEC50 in assay [1], in assay [2], in assay [4] and in assay [7] was less than 4.00 each time. Also, the result in assay [3], in assay [5] and in assay [6] was Active.
